Results on 37 compounds are retold here after US9290511B2, “Thieno-pyrimidines, useful as potassium channel inhibitors” (XENTION LIMITED, priority 2011, dated 2016).

This assay concerns the target T1, Kir3.1/3.4 (Rattus norvegicus, UniProt P48548+P63251).
T1 construct: expressed in transfected cells
T1 sequence (P63251 1-501): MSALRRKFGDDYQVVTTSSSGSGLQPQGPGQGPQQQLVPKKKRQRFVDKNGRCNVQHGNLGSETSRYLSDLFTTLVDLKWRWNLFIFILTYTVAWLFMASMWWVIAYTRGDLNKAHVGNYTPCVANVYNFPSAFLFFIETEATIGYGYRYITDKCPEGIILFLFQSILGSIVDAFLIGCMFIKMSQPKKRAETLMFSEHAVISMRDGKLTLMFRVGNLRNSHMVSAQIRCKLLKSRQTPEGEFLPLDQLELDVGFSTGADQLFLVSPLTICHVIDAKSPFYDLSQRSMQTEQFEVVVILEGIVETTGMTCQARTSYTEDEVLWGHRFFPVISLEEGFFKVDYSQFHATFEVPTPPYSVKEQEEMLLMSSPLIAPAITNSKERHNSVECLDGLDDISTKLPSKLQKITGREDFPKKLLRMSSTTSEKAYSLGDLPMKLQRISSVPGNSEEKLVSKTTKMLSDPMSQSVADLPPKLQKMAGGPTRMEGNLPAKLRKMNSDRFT
T1 sequence (P48548 1-419): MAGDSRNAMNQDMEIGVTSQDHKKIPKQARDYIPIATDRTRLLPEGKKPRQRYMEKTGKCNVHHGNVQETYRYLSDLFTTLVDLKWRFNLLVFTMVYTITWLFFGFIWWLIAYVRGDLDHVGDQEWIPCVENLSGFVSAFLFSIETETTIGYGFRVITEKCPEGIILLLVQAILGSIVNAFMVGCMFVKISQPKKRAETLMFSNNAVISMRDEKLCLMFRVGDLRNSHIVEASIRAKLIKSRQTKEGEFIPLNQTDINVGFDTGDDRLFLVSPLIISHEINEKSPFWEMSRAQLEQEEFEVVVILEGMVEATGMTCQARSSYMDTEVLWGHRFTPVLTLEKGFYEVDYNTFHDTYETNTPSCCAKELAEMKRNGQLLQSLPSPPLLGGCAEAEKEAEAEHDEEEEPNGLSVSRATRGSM
Kind of assay: Kir3.1/3.4 Electrophysiology Method (manual whole-cell patch clamp). Format: cell-based. The settings on record: Electrophysiology Method (TABLE 1). The method, then:
Compound activity against the recombinant G-protein activated inward rectifier current encoded by the heterotetramer Kir3.1/3.4 was assessed using manual whole-cell patch technique. The heterotetramer forms the pore-forming channel that conducts the acetylcholine/adenosine-activated potassium current in the heart.
For whole-cell patch-clamp studies, cells (Human Embryonic Kidney 293 stably transfected with rat Kir3.1/3.4) were seeded onto glass coverslips before recordings were made. Cells were seeded in sterile 30 mm Petri dishes at a density to enable isolated cells to be selected for patch clamp experiments. The dishes were stored in a humidified, gassed (5% CO2) incubator at 37° C. until use.
Whole-cell patch-clamp recordings of membrane currents were made following gigaohm seal formation between the patch electrode and the cell using HEKA EPC-9/10 amplifiers controlled by Pulse Software (Ver8.5x/8.6×/8.7×, HEKA, Germany). Coverslips seeded with cells were placed in a recording chamber mounted on the stage of an inverted microscope. During the experiment, the cell of interest was continuously superfused with bather solution delivered via a cannula placed in close proximity to the cell to enable control of the extracellular solution environment. Only those cells with a current <−500 pA (current at −140 mV) were used for experiments. During experiments, series resistance was compensated by a minimum of 70%.
Electrophysiology voltage-step protocols and analysis of data were performed as follows. Data was sampled at 5 kHz, and filtered with a −3 dB bandwidth of 2.5 kHz. Cells were held at a voltage of −60 mV. Currents were evoked by a depolarising voltage step to +60 mV (100 ms) before a ramp-repolarisation (0.4 V·s^−1) to −140 mV (100 ms) before returning to −60 mV. The command waveform was repeatedly applied every 10 s throughout the experiment. Mean currents during 1-99% of the time at −140 mV were analysed using Pulsefit software (v8.x, HEKA, Germany). The voltage protocol was repeatedly applied to achieve a stable current baseline in bather before the test substance was superfused via the cannula in close proximity to the cell under investigation. The test substance was allowed to equilibrate during which time voltage protocol was repeatedly applied and recorded. On reaching steady-state inhibition, the cell was superfused with an identical bather solution containing zero external potassium chloride (replaced by equimolar NaCl). The identical current measurement was made in the absence of potassium to assess the passive leak at −140 mV. The leak current was subtracted from the control and steady-state drug current values. The percentage inhibition of the leak-subtracted current in the presence of test substance was calculated relative to the control leak-subtracted pre-drug value. Internal patch-pipette solution contained in mM: 110 KCl, 20 NaCl, 0.9 GTPγS, 5 Mg-ATP, 5 EGTA, 10 HEPES, pH7.2 corrected with KOH. The external superfusate composition in mM was: 150 (or 160) NaCl, 10 (or 0) KCl, 3 CaCl2, 1 MgCl, 10 HEPES, pH 7.4 corrected with NaOH.
In turn, `c1ccc(-c2csc3ncnc(N4C5CCC4CC(CNC4CCC4)C5)c23)cc1` (stereo not shown) [Example 323] had an IC50 of under 500 nM.
Regarding `CN(C)C1CCN(CC2CCN(c3ncnc4scc(-c5ccccc5)c34)CC2)CC1` [Example 75, N,N-dimethyl-1-[[1-(5-phenylthieno[2,3-d]pyrimidin-4-yl)-4-piperidyl]methyl]piperidin-4-amine], the IC50 is under 500 nM.
As for “N-methyl-5-phenyl-thieno[2,3-d]pyrimidine-6-carboxamide [Example 343]”, the figure is 500 to 3000 nM; as for `Cc1csc2ncnc(N3CCC(COCCC4CCCN4C)CC3)c12` (stereo not shown) [Example 2, 5-methyl-4-[4-[2-(1-methylpyrrolidin-2-yl)ethoxymethyl]-1-piperidyl]thieno[2,3-d]pyrimidine], 500 to 3000 nM.
`CN(CC(=O)N1CCCC1)CC1CCN(c2ncnc3scc(-c4ccccc4)c23)CC1` [Example 93, 2-[methyl-[[1-(5-phenylthieno[2,3-d]pyrimidin-4-yl)-4-piperidyl]methyl]amino]-1-pyrrolidin-1-yl-ethanone] displayed an IC50 of 500 to 3000 nM.
In turn, `NC(=O)[C@H]1CCCN1CCN1CCN(c2ncc3c(-c4ccccc4)csc3n2)CC1` [Example 147] registered an IC50 of under 500 nM.
The same measure for `CN1CCCC1CCNC(=O)C1CCN(c2ncnc3scc(-c4ccccc4)c23)CC1` (stereo not shown) [Example 166, N-[2-(1-methylpyrrolidin-2-yl)ethyl]-1-(5-phenylthieno[2,3-d]pyrimidin-4-yl)piperidine-4-carboxamide]: 500 to 3000 nM; for `CC(C)NCC1CC2CCC(C1)N2c1ncnc2scc(-c3ccccc3)c12` (stereo not shown) [Example 334]: under 500 nM.
Regarding `CCc1c(C)sc2ncnc(N3CCC(COCCN4CCOCC4)CC3)c12` [Example 23, 4-[2-[[1-(5-ethyl-6-methyl-thieno[2,3-d]pyrimidin-4-yl)-4-piperidyl]methoxy]ethyl]morpholine], the IC50 was under 500 nM.
As to `OCC1(NCC2CCN(c3ncnc4scc(-c5ccccc5)c34)CC2)CCCC1` [Example 54, [1-[[1-(5-phenylthieno[2,3-d]pyrimidin-4-yl)-4-piperidyl]methylamino]cyclopentyl]methanol], the IC50 is under 500 nM.
As for `CC(C)NC(=O)c1sc2ncnc(N3CCC(CN(C)C4CCN(C)C4)CC3)c2c1-c1ccccc1` (stereo not shown) [Example 132], the half-inhibitory concentration (IC50) is under 500 nM.
The compound `COCC1CCN(c2nc(N(C)C3CCN(C)C3)nc3scc(-c4ccccc4)c23)CC1` (stereo not shown) [Example 193] yielded an IC50 of under 500 nM.
`CC(C)c1csc2nc(N3CCC(C(N)=O)C3)nc(N3CCC(CN(C)C4CCN(C)C4)CC3)c12` (stereo not shown) [Example 245] displayed an IC50 of under 500 nM.
For `O=C1CN(c2nc(N3CCC(CNC4CCC4)CC3)c3c(-c4ccccc4)csc3n2)CCN1` [Example 125], the IC50 lay within 500 to 3000 nM.
Compound `FC(F)CNCC1CCN(c2ncnc3scc(-c4ccccc4)c23)CC1` [Example 52, 2,2-difluoro-N-[[1-(5-phenylthieno[2,3-d]pyrimidin-4-yl)-4-piperidyl]methyl]ethanamine] displayed an IC50 of 500 to 3000 nM.
The compound `CN(C)[C@@H]1CCCN(CC2CCN(c3ncnc4scc(-c5ccccc5)c34)CC2)C1` [Example 216] registered a half-inhibitory concentration (IC50) of under 500 nM.
The same measure for `O[C@H]1CN(CC2CCN(c3ncnc4scc(-c5ccccc5)c34)CC2)C[C@@H]1N1CCCC1` [Example 67, (3S,4S)-1-[[1-(5-phenylthieno[2,3-d]pyrimidin-4-yl)-4-piperidyl]methyl]-4-pyrrolidin-1-yl-pyrrolidin-3-ol]: under 500 nM; for `O[C@H]1CCN(CC2CCN(c3ncnc4scc(-c5ccccc5)c34)CC2)C1` [Example 190]: under 500 nM; for `CN(C)C1CCCN(CC2CCCN(c3ncnc4scc(-c5ccccc5)c34)C2)C1` (stereo not shown) [Example 208]: under 500 nM.
The same measure for `COCC1CCN(c2nc(OC3CC4CC3CN4)nc3scc(-c4ccccc4)c23)CC1` (stereo not shown) [Example 307]: under 500 nM.
`COCCN(CCOC)CC1CCN(c2ncnc3scc(-c4ccccc4)c23)CC1` [Example 53, 2-methoxy-N-(2-methoxyethyl)-N-[[1-(5-phenylthieno[2,3-d]pyrimidin-4-yl)-4-piperidyl]methyl]ethanamine]: the IC50 was under 500 nM.
For `CC(=O)NC1CCN(c2nc(N3CCC(COCCN4CCOCC4)CC3)c3c(-c4ccccc4)csc3n2)C1` (stereo not shown) [Example 259], the concentration for half-maximal inhibition (IC50) was under 500 nM.
On to `CCOc1ncccc1-c1csc2ncnc(N3CCC(COCCN4CCCC4)CC3)c12` [Example 331], for which the IC50 is under 500 nM.
Consider `CC(C)c1csc2ncnc(N3C4CCC3CC(OCCN3CCCC3)C4)c12` (stereo not shown) [Example 297], for which the IC50 is under 500 nM.
On to `c1ccc(-c2csc3nc(C4CC4)nc(N4C5CCC4CC(NC4CCC4)C5)c23)cc1` (stereo not shown) [Example 321, N-cyclobutyl-8-(2-cyclopropyl-5-phenyl-thieno[2,3-d]pyrimidin-4-yl)-8-azabicyclo[3.2.1]octan-3-amine], for which the IC50 is under 500 nM.
As for `O=C1CCCN1c1sc2nc(N3CCC(COCCN4CCCC4)CC3)ncc2c1-c1ccccc1` [Example 156], the figure is under 500 nM; as for `CN(C)C(=O)c1ccccc1-c1csc2ncnc(N3CCC(COCCN4CCCC4)CC3)c12` [Example 330], 3000 to 10000 nM; as for `c1ccc(-c2csc3ncnc(N4CCC(CNC5CC5)CC4)c23)cc1` [Example 74, N-[[1-(5-phenylthieno[2,3-d]pyrimidin-4-yl)-4-piperidyl]methyl]cyclopropanamine], under 500 nM.
On to `CN1CCN(c2nc(N3CCC(CN(C)C4CCN(C)C4)CC3)c3c(-c4ccccc4)csc3n2)CC1` (stereo not shown) [Example 111], for which the IC50 is under 500 nM.
`CN(CCC1CCCN1C)CC1CCN(c2ncnc3scc(-c4ccccc4)c23)CC1` (stereo not shown) [Example 101] came in with an IC50 of under 500 nM.
Compound `Fc1ccc(-c2csc3nc(Cl)nc(N4CCC(COCCN5CCCC5)CC4)c23)cc1` [Example 279] yielded an IC50 of under 500 nM.
Compound `COc1cccc(-c2csc3ncnc(N4CCC(COCCN5CCCC5)CC4)c23)c1` [Example 312] displayed an IC50 of under 500 nM.
In the case of `COCC1CCN(c2nc(N3CCC(CO)CC3)nc3scc(-c4ccccc4)c23)CC1` [Example 191], the IC50 was under 500 nM.
In the case of `NC(=O)[C@@H]1CCN(CCN2CCN(c3ncc4c(-c5ccccc5)csc4n3)CC2)C1` [Example 150], the IC50 was in the range of 500 to 3000 nM.
In the case of `CC(C)Oc1ncccc1-c1csc2ncnc(N3CCC(COCCN4CCCC4)CC3)c12` [Example 328], the IC50 was under 500 nM.
For `CN(C)C1CCCN(CC2CCN(c3ncnc4scc(-c5ccc(F)cc5)c34)CC2)C1` (stereo not shown) [Example 79, 1-[[1-[5-(4-fluorophenyl)thieno[2,3-d]pyrimidin-4-yl]-4-piperidyl]methyl]-N,N-dimethyl-piperidin-3-amine], the IC50 is under 500 nM.
On to `CC(C)NC(=O)c1sc2ncnc(N3CCC(COCCN4CCCC4)CC3)c2c1-c1ccccc1` [Example 139, N-isopropyl-5-phenyl-4-[4-(2-pyrrolidin-1-ylethoxymethyl)-1-piperidyl]thieno[2,3-d]pyrimidine-6-carboxamide], for which the IC50 was under 500 nM.
